The term Kd denotes the concentration at which binding is half-saturated. In general, EC50 refers to the concentration that produces a half-maximal response. A low value points to higher potency in that assay.

The results in this text go back to patent publication US20240208998A1, “COMPOUNDS FOR USE IN THE TREATMENT OF HYPERPROLIFERATIVE DISORDERS” (FUNDACIÓ PRIVADA INSTITUT D'INVESTIGACIÓ ONCOLÓGICA DE VALL …, priority 2021, published 2024).

For test [1], the target named is human TET2 construct (Homo sapiens, UniProt Q6N021, A1837G/A1840G/D1704G/D1842G/DEL1471-1702/DEL1708-1833/E1841G/F1706G/N1843S/Q1834G/V1836G). As to the kind of experiment: Determination of TET2 binding by Surface Plasmon Resonance. The settings on record: SPR, Biacore T200, 25° C., steady state fit to single site interaction model. How it is done: The human methylcytosine dioxygenase TET2 construct used (1129-2002 with residues 1471-1843 replaced by a 15-residue GS-linker) was expressed in a pET-28a(+)psumo vector with kanamycin resistance and an N-terminal His6 tag, and cloned in Rosetta D3 Escherichia coli competent cells. Transformed cells were cultured overnight in 10 mL of LB media supplied with kanamycin (50 μg/mL), then scaled to 1 L LB medium supplied with kanamycin (50 μg/mL) and grown at 37° C. Once the optical density (OD600) achieved 0.8, protein expression was induced with 0.4 mM isopropyl-β-thiogalactopyranoside (IPTG) overnight at 18° C. Cells were harvested by centrifugation (8,000 rpm, 4° C., 30 min) and the pellet obtained was resuspended in 15 mL of buffer A (50 mM Hepes, 150 mM NaCl, 30 mM imidazole, 2 mM β-mercaptoethanol (pH 8.0) supplemented with Pierce protease inhibitor cocktail (ThermoFisher Scientific)) and lysed by sonication (1 min 40 s: 10 cycles×10 s ON, 30 s OFF, A=35%, T=19° C.) followed by two consecutive centrifugations (8,000 rpm, 4° C., 30 min) to clarify the lysate.
The TET2 protein was purified using an AKTA Start system (GE Healthcare, Uppsala, Sweden) by two-step purification procedure: one His-affinity chromatography followed by a size exclusion chromatography. First, the protein fraction obtained during the lysis (supernatant) was applied to a 5 mL HisTrap HP column (GE Healthcare), washed with buffer A (50 mM Hepes, 150 mM NaCl, 30 mM imidazole, 2 mM […] (pH 8.0)) and the bound protein was eluted with buffer B (50 mM Hepes, 150 mM NaCl, 250 mM imidazole, 2 mM β-mercaptoethanol (pH 8.0)). The eluted protein-containing fractions were pooled and concentrated up to 4 mL for the last purification step: a size exclusion chromatography (HiPrep 16/60 Sephacryl S-100 HR) in 50 mM Hepes, 150 mM NaCl, 2 mM β-mercaptoethanol (pH 8.0). Finally, the mass and purity of the protein were verified by SDS-electrophoresis and mass spectrometry.
The binding of compounds of the examples was determined by Surface Plasmon Resonance (SPR) using a Biacore T200 SPR biosensor instrument (GE Healthcare, Uppsala, Sweden) at 25° C. The human TET2 construct was immobilized on a CM5 sensor chip using a standard covalent immobilization via amine coupling following the activation of the carboxymethyl dextran matrix of the sensor chip (injection of a solution containing 0.1 M N-hydroxysuccinimide and 0.4 M 1-ethyl-3-[3-(dimethylamino)propyl]carbodiimide hydrochloride at a flow rate of 15 μL/min for 7 min). The protein immobilization was achieved after the injection of 5 μg/mL TET2 in 10 mM sodium acetate (pH 4.0) at a flow rate of 5 μL/min. Unreacted activated groups of the dextran matrix were deactivated by injection of 1 M ethanolamine hydrochloride for 7 min at a flow rate of 15 μL/min. The corresponding matrix activation and protein immobilization were performed using as a running buffer a phosphate buffered saline solution (1.05× PBS: 10 mM phosphate, pH 7.4, 150 mM NaCl). The screened compounds were prepared in a 20 mM stock solution in DMSO and diluted with 1.05× PBS to achieve a final 5% (v/v) DMSO concentration. The running buffer of the interaction assays consisted of 1×PBS, 5% (v/v) DMSO. The flow rate used for the screening was 60 μL/min and the ligand association and dissociation times set were 60 s and 120 s, respectively.
For data analysis the software used was the Biacore T200 Evaluation software. Different corrections were applied. First, the nonspecific binding to the chip surface and the baseline drift were corrected subtracting the signals of a reference surface (where the immobilization procedure was carried out without proteins) to the signals obtained on the TET2 surface. Second, a series of solvent standards (solvent correction) were introduced to remove the differences derived from the DMSO. Finally, the background was corrected subtracting blank injections (blank subtraction) to the injected compound signals.
A general note: Surface plasmon resonance follows binding to a sensor surface in real time, without labels.

Test [2] concerns HCT116 (colon). As to the kind of experiment: Antiproliferative activity on other tumour cell lines (CellTiter-Glo): HCT116. Type of test: cell-based. The settings on record: Homo sapiens; HCT 116, 72 h of treatment. How it is done:
(§1) Other human adherent cancer cell lines were cultured in their corresponding cell medium (as specified in Table 4) supplemented with 10% FBS (v/v) and 1% P/S (v/v). Twenty-four hours prior to treatment with the compounds to be tested (Examples 1, 12 and 21), the cells were seeded in 96-well plates at different densities depending of the cell line (as specified in Table 4).
(§2) Depending on the cell line, a 50, 125 or 250 μM solution of the compounds of examples 1, 12 and 21 were prepared in complete medium, and then serially diluted (1:2) (Table 5). A solution of complete medium with DMSO was used as a vehicle control.
(§3) Fifty microliters of each serially diluted compound solution was added by medium replacement in two wells (by duplicate). After 48 h of treatment, 50 μL of fresh 2X serially diluted compound solution was added to the corresponding wells of the plate (100 μL of final volume/well). After twenty-four additional hours (a total of 72 h of treatment), an equal volume (100 μL) of CellTiter-Glo Reagent (Promega) was added to each well, plates were shaken during 2 min and incubated at rt for 10 min. Luminescence was recorded using a Spark multimode microplate reader and an integration time of 1 s per well.

For test [3], the system named is LN229 (glioblastoma). As to the kind of experiment: Antiproliferative activity on other tumour cell lines (CellTiter-Glo): LN229. The settings on record: Homo sapiens, LN-229; LN229, 72 h of treatment. Type of test: cell-based. How it is done: as §1, §2, §3
A general note: In ATP-based viability assays light output follows the ATP content of the culture.

The subject of test [4] is Hop62 (lung). As to the kind of experiment: Antiproliferative activity on other tumour cell lines (CellTiter-Glo): Hop62. Type of test: cell-based. The settings on record: Homo sapiens, HOP-62; Hop62, 72 h of treatment. How it is done: as §1, §2, §3
Test [5] relates to T98G (glioblastoma). Kind of test: Antiproliferative activity on other tumour cell lines (CellTiter-Glo): T98G. It is filed as cell-based. The settings on record: Homo sapiens, 72 h of treatment. How it is done:
as §1, §2, §3

The subject of test [6] is A375 (melanoma). Kind of test: Antiproliferative activity on other tumour cell lines (CellTiter-Glo): A375. Type of test: cell-based. The settings on record: Homo sapiens, A-375; A375, 72 h of treatment. How it is done:
as §1, §2, §3

Test [7] has as its system MCF7 (breast). Kind of test: Antiproliferative activity on other tumour cell lines (CellTiter-Glo): MCF7. The settings on record: Homo sapiens; MCF7, 72 h of treatment. Type of test: cell-based. The protocol:
as §1, §2, §3

The subject of test [8] is MDA-MB-468 (breast). Kind of test: Antiproliferative activity on other tumour cell lines (CellTiter-Glo): MDA-MB-468. The settings on record: Homo sapiens, MD-MB-468, 72 h of treatment. Type of test: cell-based. The protocol: as §1, §2, §3

In the case of `Cc1[nH]c2ccccc2c1-c1csc(NC(=O)Cc2cc(Br)cs2)n1` [Example 19, 2-(4-bromothiophen-2-yl)-N-[4-(2-methyl-1H-indol-3-yl)thiazol-2-yl]acetamide], in test [1], the Kd was 1 µM.
As for `Cc1[nH]c2ccccc2c1-c1csc(NC(=O)Cc2c[nH]c3ccc(O)cc23)n1` [Example 21, 2-(5-hydroxy-1H-indol-3-yl)-N-[4-(2-methyl-1H-indol-3-yl)thiazol-2-yl]acetamide], the EC50 in test [2] came to 16.4 µM; in test [3], 3.3 µM; in test [4] it was 81.6 µM; in test [5], 11.4 µM; in test [6] it was 1.1 µM; in test [7] it was 12.9 µM. Further, in test [8], it took 9.2 µM to reach a half-maximal effect (EC50). This molecule registered a Kd in test [1] of 7 µM.
For the molecule `Cc1[nH]c2ccccc2c1-c1csc(NC(=O)Cc2c[nH]c3ccc(F)cc23)n1` [Example 12, 2-(5-fluoro-1H-indol-3-yl)-N-[4-(2-methyl-1H-indol-3-yl)thiazol-2-yl]acetamide], the EC50 in test [2] worked out at 6.8 µM; in test [3] it was 5.9 µM; in test [4] it was 12.1 µM; in test [5] it was 23.1 µM; in test [6], 2.7 µM; in test [7], 10.3 µM. The same molecule had an EC50 in test [8] of 10.1 µM. In addition, the dissociation constant Kd in test [1] was 6 µM.
Turning to `Cc1[nH]c2ccccc2c1-c1nc(NC(=O)Cc2cn3ccsc3n2)sc1C` [Example 4, 2-(imidazo[2,1-b]thiazol-6-yl)-N-[5-methyl-4-(2-methyl-1H-indol-3-yl)thiazol-2-yl]acetamide], in test [1], the Kd is 12 µM.
On the same count and under the same terms, the figure for `Cc1[nH]c2ccccc2c1-c1csc(NC(=O)Cc2c[nH]c3ccccc23)n1` [Example 13, 2-(1H-indol-3-yl)-N-[4-(2-methyl-1H-indol-3-yl)thiazol-2-yl]acetamide] is 14 µM.
